# In the supplement of paper PMC10307832:
# What was measured:
# Assay in all cases: relative viability (nuclei count vs DMSO), 5 days (fraction); higher = more cells survive
# [1] = system: 201T
# Summary of the method: (§1)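 Lung cancer cell lines in 1536-well plates got either a single drug or a fixed anchor-drug dose together with five library-drug doses (not always all listed) in √10 steps, by pin tool, on the day after seeding. Nuclei were counted after 5 days, and relative viability is the treated-to-vehicle ratio of nuclei counts. Values are medians of duplicate plates.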
# [2] = system: BEN
# Summary of the method: as §1
# [3] = system: COR-L 105
# Summary of the method: as §1
# [4] = system: EKVX
# Summary of the method: as §1
# [5] = system: EPLC-272H
# Summary of the method: as §1
# [6] = system: H3255
# Summary of the method: as §1
# [7] = system: HCC-44
# Summary of the method: as §1
# [8] = system: HCC-827
# Summary of the method: as §1
# [9] = system: HOP-62
# Summary of the method: as §1
# [10] = system: LCLC-97TM1
# Summary of the method: as §1
# [11] = system: LOU-NH91
# Summary of the method: as §1
# [12] = system: LU99A
# Summary of the method: as §1
# [13] = system: NCI-H1395
# Summary of the method: as §1
# [14] = system: NCI-H1437
# Summary of the method: as §1
# [15] = system: NCI-H1666
# Summary of the method: as §1
# [16] = system: NCI-H1975
# Summary of the method: as §1
# [17] = system: NCI-H2085
# Summary of the method: as §1
# [18] = system: NCI-H2087
# Summary of the method: as §1
# [19] = system: NCI-H2126
# Summary of the method: as §1
# [20] = system: NCI-H358
# Summary of the method: as §1
# [21] = system: NCI-H647
# Summary of the method: as §1
# [22] = system: PC-3 [JPC-3]
# Summary of the method: as §1
# [23] = system: SW 1573
# Summary of the method: as §1
smiles,measurement,setting,value
Clc1ccc(Nc2nnc(Cc3ccncc3)c3ccccc23)cc1 [Vatalanib] + CS(=O)(=O)CCNCc1ccc(-c2ccc3ncnc(Nc4ccc(OCc5cccc(F)c5)c(Cl)c4)c3c2)o1 [Lapatinib] (partner 2 µM),relative viability,[1]; first compound 0.04 µM,1.02
same,relative viability,[1]; first compound 0.1265 µM,0.989
same,relative viability,[1]; first compound 0.4 µM,1.04
same,relative viability,[1]; first compound 1.265 µM,1.05
same,relative viability,[1]; first compound 4 µM,1.07
same,relative viability,[2]; first compound 0.04 µM,0.79
same,relative viability,[2]; first compound 0.1265 µM,0.554
same,relative viability,[2]; first compound 0.4 µM,0.806
same,relative viability,[2]; first compound 1.265 µM,0.657
same,relative viability,[2]; first compound 4 µM,0.767
same,relative viability,[3]; first compound 0.04 µM,0.375
same,relative viability,[3]; first compound 0.1265 µM,0.301
same,relative viability,[3]; first compound 0.4 µM,0.404
same,relative viability,[3]; first compound 1.265 µM,0.358
same,relative viability,[3]; first compound 4 µM,0.353
same,relative viability,[4]; first compound 0.04 µM,0.195
same,relative viability,[4]; first compound 0.1265 µM,0.238
same,relative viability,[4]; first compound 0.4 µM,0.547
same,relative viability,[4]; first compound 1.265 µM,0.186
same,relative viability,[4]; first compound 4 µM,0.216
same,relative viability,[5]; first compound 0.04 µM,0.931
same,relative viability,[5]; first compound 0.1265 µM,0.9
same,relative viability,[5]; first compound 0.4 µM,0.23
same,relative viability,[5]; first compound 1.265 µM,0.985
same,relative viability,[5]; first compound 4 µM,1.01
same,relative viability,[6]; first compound 0.04 µM,0.261
same,relative viability,[6]; first compound 0.1265 µM,0.226
same,relative viability,[6]; first compound 0.4 µM,0.287
same,relative viability,[6]; first compound 1.265 µM,0.247
same,relative viability,[6]; first compound 4 µM,0.263
same,relative viability,[7]; first compound 0.04 µM,1.01
same,relative viability,[7]; first compound 0.1265 µM,0.941
same,relative viability,[7]; first compound 0.4 µM,1.02
same,relative viability,[7]; first compound 1.265 µM,0.986
same,relative viability,[7]; first compound 4 µM,0.986
same,relative viability,[8]; first compound 0.04 µM,0.19
same,relative viability,[8]; first compound 0.1265 µM,0.174
same,relative viability,[8]; first compound 0.4 µM,0.182
same,relative viability,[8]; first compound 1.265 µM,0.165
same,relative viability,[8]; first compound 4 µM,0.188
same,relative viability,[9]; first compound 0.04 µM,1.13
same,relative viability,[9]; first compound 0.4 µM,1.06
same,relative viability,[9]; first compound 1.265 µM,0.827
same,relative viability,[9]; first compound 4 µM,0.989
same,relative viability,[10]; first compound 0.04 µM,0.818
same,relative viability,[10]; first compound 0.1265 µM,0.847
same,relative viability,[10]; first compound 0.4 µM,0.841
same,relative viability,[10]; first compound 1.265 µM,0.897
same,relative viability,[10]; first compound 4 µM,0.971
same,relative viability,[11]; first compound 0.04 µM,0.763
same,relative viability,[11]; first compound 0.1265 µM,0.741
same,relative viability,[11]; first compound 0.4 µM,0.802
same,relative viability,[11]; first compound 1.265 µM,0.689
same,relative viability,[11]; first compound 4 µM,0.664
same,relative viability,[12]; first compound 0.04 µM,0.893
same,relative viability,[12]; first compound 0.1265 µM,0.986
same,relative viability,[12]; first compound 0.4 µM,1.16
same,relative viability,[12]; first compound 1.265 µM,0.831
same,relative viability,[12]; first compound 4 µM,0.92
same,relative viability,[13]; first compound 0.04 µM,1.16
same,relative viability,[13]; first compound 0.1265 µM,0.929
same,relative viability,[13]; first compound 0.4 µM,0.948
same,relative viability,[13]; first compound 1.265 µM,1.01
same,relative viability,[13]; first compound 4 µM,0.864
same,relative viability,[14]; first compound 0.04 µM,0.856
same,relative viability,[14]; first compound 0.1265 µM,0.779
same,relative viability,[14]; first compound 0.4 µM,0.934
same,relative viability,[14]; first compound 1.265 µM,0.734
same,relative viability,[14]; first compound 4 µM,0.848
same,relative viability,[15]; first compound 0.04 µM,0.728
same,relative viability,[15]; first compound 0.1265 µM,0.749
same,relative viability,[15]; first compound 0.4 µM,0.863
same,relative viability,[15]; first compound 1.265 µM,0.529
same,relative viability,[15]; first compound 4 µM,0.545
same,relative viability,[16]; first compound 0.04 µM,0.856
same,relative viability,[16]; first compound 0.1265 µM,0.827
same,relative viability,[16]; first compound 0.4 µM,0.942
same,relative viability,[16]; first compound 1.265 µM,0.808
same,relative viability,[16]; first compound 4 µM,0.769
same,relative viability,[17]; first compound 0.04 µM,0.818
same,relative viability,[17]; first compound 0.1265 µM,0.736
same,relative viability,[17]; first compound 0.4 µM,0.891
same,relative viability,[17]; first compound 1.265 µM,0.701
same,relative viability,[17]; first compound 4 µM,0.723
same,relative viability,[18]; first compound 0.04 µM,1.12
same,relative viability,[18]; first compound 0.1265 µM,1.02
same,relative viability,[18]; first compound 0.4 µM,1.15
same,relative viability,[18]; first compound 1.265 µM,1.09
same,relative viability,[18]; first compound 4 µM,1.12
same,relative viability,[19]; first compound 0.04 µM,0.787
same,relative viability,[19]; first compound 0.1265 µM,0.823
same,relative viability,[19]; first compound 0.4 µM,0.773
same,relative viability,[19]; first compound 1.265 µM,0.744
same,relative viability,[19]; first compound 4 µM,0.71
same,relative viability,[20]; first compound 0.04 µM,0.498
same,relative viability,[20]; first compound 0.1265 µM,0.429
same,relative viability,[20]; first compound 0.4 µM,0.564
same,relative viability,[20]; first compound 1.265 µM,0.355
same,relative viability,[20]; first compound 4 µM,0.457
same,relative viability,[21]; first compound 0.04 µM,1.12
same,relative viability,[21]; first compound 0.1265 µM,1.07
same,relative viability,[21]; first compound 0.4 µM,1.26
same,relative viability,[21]; first compound 1.265 µM,1.05
same,relative viability,[21]; first compound 4 µM,1.04
same,relative viability,[22]; first compound 0.04 µM,0.49
same,relative viability,[22]; first compound 0.1265 µM,0.461
same,relative viability,[22]; first compound 0.4 µM,0.448
same,relative viability,[22]; first compound 1.265 µM,0.43
same,relative viability,[22]; first compound 4 µM,0.442
same,relative viability,[23]; first compound 0.04 µM,1.29
same,relative viability,[23]; first compound 0.1265 µM,0.942
same,relative viability,[23]; first compound 0.4 µM,1.23
same,relative viability,[23]; first compound 1.265 µM,1.04
same,relative viability,[23]; first compound 4 µM,1.05
